The values that follow come from doi:10.1101/2025.07.08.663693v1 (biorxiv, 2025).

Structures are written as SMILES.

In general, Kd refers to the equilibrium constant for the complex coming apart. A higher Kd goes with lower affinity. The IC50 is the concentration that gives 50% inhibition. Low values mean greater potency in that assay, high ones weaker potency in that assay.

One assay deals with T1, hSLIT2-His (Homo sapiens, UniProt O94813).
T1 sequence (O94813 31-1529): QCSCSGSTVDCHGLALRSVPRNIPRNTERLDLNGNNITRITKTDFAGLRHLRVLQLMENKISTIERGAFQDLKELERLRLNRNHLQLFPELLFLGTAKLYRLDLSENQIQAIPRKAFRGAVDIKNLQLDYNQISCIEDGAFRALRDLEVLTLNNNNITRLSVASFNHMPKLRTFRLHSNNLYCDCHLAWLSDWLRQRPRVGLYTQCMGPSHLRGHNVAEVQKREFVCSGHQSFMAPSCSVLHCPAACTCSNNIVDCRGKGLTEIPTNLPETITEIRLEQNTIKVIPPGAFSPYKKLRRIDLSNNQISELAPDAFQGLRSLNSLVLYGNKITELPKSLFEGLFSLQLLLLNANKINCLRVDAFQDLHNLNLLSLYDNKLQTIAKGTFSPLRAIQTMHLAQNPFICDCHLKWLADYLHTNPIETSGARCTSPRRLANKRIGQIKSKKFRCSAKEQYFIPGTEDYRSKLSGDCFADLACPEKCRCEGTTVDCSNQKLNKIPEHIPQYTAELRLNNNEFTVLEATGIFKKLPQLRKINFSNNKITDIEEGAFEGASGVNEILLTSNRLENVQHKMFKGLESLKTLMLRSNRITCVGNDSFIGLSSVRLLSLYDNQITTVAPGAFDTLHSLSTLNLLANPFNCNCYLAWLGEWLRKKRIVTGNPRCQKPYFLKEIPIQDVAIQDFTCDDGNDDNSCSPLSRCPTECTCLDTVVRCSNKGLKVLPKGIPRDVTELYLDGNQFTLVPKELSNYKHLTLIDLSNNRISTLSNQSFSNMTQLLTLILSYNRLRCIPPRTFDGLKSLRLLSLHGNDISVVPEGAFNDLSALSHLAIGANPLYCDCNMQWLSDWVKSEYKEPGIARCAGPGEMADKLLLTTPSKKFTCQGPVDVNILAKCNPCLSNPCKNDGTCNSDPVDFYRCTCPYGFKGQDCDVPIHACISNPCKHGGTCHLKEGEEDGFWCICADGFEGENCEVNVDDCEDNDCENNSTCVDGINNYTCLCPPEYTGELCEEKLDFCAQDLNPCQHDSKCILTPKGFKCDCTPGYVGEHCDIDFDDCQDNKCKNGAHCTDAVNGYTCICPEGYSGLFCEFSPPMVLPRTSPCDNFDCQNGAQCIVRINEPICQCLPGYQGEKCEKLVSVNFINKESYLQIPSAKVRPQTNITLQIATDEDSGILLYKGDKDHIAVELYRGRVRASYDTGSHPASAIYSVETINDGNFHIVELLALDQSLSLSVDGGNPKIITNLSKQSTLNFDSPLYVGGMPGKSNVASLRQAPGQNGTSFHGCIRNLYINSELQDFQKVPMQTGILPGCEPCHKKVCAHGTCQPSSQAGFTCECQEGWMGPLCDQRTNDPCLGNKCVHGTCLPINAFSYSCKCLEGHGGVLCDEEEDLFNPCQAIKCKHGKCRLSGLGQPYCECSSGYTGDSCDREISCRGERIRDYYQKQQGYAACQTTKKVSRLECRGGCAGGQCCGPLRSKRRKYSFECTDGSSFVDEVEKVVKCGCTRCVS
In words: TRIC/MST dose response. Type of assay: binding.

Another assay deals with T2, SLIT2/ROBO1 (Homo sapiens, UniProt O94813).
T2 sequence (O94813 31-1529): T1 sequence (O94813 31-1529)
T2 sequence (Q9Y6N7 26-897 partner limits assumed): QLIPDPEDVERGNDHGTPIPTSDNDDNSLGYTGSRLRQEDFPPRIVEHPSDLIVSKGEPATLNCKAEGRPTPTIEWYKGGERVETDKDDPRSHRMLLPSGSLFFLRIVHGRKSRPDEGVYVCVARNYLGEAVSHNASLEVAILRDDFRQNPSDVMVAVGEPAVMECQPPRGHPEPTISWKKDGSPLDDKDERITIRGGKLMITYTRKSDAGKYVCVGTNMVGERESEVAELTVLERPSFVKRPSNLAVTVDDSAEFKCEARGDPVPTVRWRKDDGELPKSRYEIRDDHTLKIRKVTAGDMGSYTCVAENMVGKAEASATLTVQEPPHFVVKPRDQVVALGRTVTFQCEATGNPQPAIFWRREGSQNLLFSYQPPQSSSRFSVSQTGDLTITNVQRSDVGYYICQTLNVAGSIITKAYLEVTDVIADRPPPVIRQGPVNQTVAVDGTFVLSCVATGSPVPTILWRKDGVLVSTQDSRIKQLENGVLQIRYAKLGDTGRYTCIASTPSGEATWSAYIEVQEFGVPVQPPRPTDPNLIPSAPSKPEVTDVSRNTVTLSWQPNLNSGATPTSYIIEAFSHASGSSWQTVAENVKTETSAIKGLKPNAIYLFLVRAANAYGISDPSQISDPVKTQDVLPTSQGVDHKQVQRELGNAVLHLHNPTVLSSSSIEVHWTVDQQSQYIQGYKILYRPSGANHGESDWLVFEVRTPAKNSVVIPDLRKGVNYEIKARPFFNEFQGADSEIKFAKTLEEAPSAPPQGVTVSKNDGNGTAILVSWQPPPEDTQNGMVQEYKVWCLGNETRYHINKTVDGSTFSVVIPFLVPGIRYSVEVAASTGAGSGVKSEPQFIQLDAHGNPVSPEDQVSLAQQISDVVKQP
In words: TR-FRET SLIT2/ROBO1 interaction inhibition. Type of assay: binding.

Turning to `C=C(c1ccc(C(=O)O)cc1)c1cc2c(cc1C)C(C)(C)CCC2(C)C` [bexarotene], on hSLIT2-His, the equilibrium dissociation constant (Kd) turned out to be 2.62 µM. At SLIT2/ROBO1, this compound registered an IC50 of 22.8 ± 3.85 µM.
